{"source": "ChEMBL document CHEMBL1152541", "about": "“Staurosporine tethered peptide ligands that target cAMP-dependent protein kinase (PKA): optimization and selectivity profiling” (Bioorg Med Chem, 2009)", "biological_target": "T1, TGF-beta receptor type-1 (Homo sapiens) (UniProt P36897)", "T1 sequence (whole entry)": "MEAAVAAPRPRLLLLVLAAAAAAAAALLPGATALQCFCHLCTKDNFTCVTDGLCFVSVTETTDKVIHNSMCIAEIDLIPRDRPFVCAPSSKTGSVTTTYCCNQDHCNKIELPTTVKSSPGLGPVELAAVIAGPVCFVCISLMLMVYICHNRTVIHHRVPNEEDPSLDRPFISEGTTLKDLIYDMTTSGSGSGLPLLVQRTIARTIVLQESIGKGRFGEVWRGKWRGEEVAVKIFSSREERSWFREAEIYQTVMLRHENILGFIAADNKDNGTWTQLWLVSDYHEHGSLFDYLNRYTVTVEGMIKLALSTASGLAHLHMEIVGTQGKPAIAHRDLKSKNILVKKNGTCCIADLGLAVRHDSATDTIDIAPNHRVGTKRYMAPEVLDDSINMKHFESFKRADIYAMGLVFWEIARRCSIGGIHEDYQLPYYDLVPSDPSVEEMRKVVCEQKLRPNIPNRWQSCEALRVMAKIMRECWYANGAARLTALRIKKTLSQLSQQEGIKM", "assay": "Binding affinity to human TGFBR1 at 500 nM by cell-based competition binding assay relative to control in presence of DTT", "data": [{"smiles": "CO[C@@H]1[C@H](N(C)C(=O)CCC(=O)NCCC(=O)NCCC(=O)NCCC(N)=O)C[C@H]2O[C@]1(C)n1c3ccccc3c3c4c(c5c6ccccc6n2c5c31)C(=O)NC4", "values": [{"measurement": "Activity", "result": 75, "unit": "%"}]}]}
